Measurements as given in US9730937B2, “RAF kinase modulator compounds and methods of use thereof” (AMBIT BIOSCIENCES CORPORATION, priority 2008, dated 2017).

Tested on: panel of 290 distinct kinases (321 in the larger panel), excluding mutant variants
Conditions: no asterisk: panel of 290 distinct kinases

Compound	S35
COc1cc2c(Oc3cccc(NC(=O)Nc4cc(C(C)(C)C)on4)c3)ncnc2cc1OCCCN1CCS(=O)(=O)CC1 [Ex 256, 1-(5-tert-butyl-isoxazol-3-yl)-3-(3-{7-[3-(1,1-dioxo-thiomorpholin-4-yl)-propoxy]-6-methoxy-quinazolin-4-yloxy}-phenyl)-urea]	D (D > 0.40)
COc1cc2c(Oc3cccc(NC(=O)Nc4cc(C(C)(C)F)no4)c3)ncnc2cc1O [Ex 257, 1-(3-(2-fluoropropan-2-yl)isoxazol-5-yl)-3-(3-(7-hydroxy-6-methoxyquinazolin-4-yloxy)phenyl)urea]	C (0.20 < C ≦ 0.40)
COc1cc2ncnc(Oc3cccc(NC(=O)Nc4cc(C(C)(C)F)no4)c3)c2cc1O [Ex 258, 1-(3-(2-fluoropropan-2-yl)isoxazol-5-yl)-3-(3-(6-hydroxy-7-methoxyquinazolin-4-yloxy)phenyl)urea]	C (0.20 < C ≦ 0.40)
COc1cc2ncnc(Oc3cccc(NC(=O)Nc4cc(C(C)(C)C(F)(F)F)on4)c3)c2cc1OC [Ex 259, 1-(3-(6,7-dimethoxyquinazolin-4-yloxy)phenyl)-3-(5-(1,1,1-trifluoro-2-methylpropan-2-yl)isoxazol-3-yl)urea]	C (0.20 < C ≦ 0.40)
CCOc1cc2c(Oc3cccc(NC(=O)Nc4cc(C(C)(C)C(F)(F)F)on4)c3)ncnc2cc1OC [Ex 260, 1-(3-(6-ethoxy-7-methoxyquinazolin-4-yloxy)phenyl)-3-(5-(1,1,1-trifluoro-2-methylpropan-2-yl)isoxazol-3-yl)urea]	C (0.20 < C ≦ 0.40)
CCOc1cc2c(Sc3cccc(NC(=O)Nc4cc(C(C)(C)C(F)(F)F)on4)c3)ncnc2cc1OC [Ex 262, 1-(3-(6-ethoxy-7-methoxyquinazolin-4-ylthio)phenyl)-3-(5-(1,1,1-trifluoro-2-methylpropan-2-yl)isoxazol-3-yl)urea]	C (0.20 < C ≦ 0.40)
COc1cc2c(Oc3cccc(NC(=O)Nc4cc(C(C)(C)C(F)(F)F)on4)c3)ncnc2cc1O [Ex 263, 1-(3-(7-hydroxy-6-methoxyquinazolin-4-yloxy)phenyl)-3-(5-(1,1,1-trifluoro-2-methylpropan-2-yl)isoxazol-3-yl)urea]	C (0.20 < C ≦ 0.40)
COc1cc2ncnc(Oc3cccc(NC(=O)Nc4cc(C(C)(C)C(F)(F)F)on4)c3)c2cc1O [Ex 264, 1-(3-(6-hydroxy-7-methoxyquinazolin-4-yloxy)phenyl)-3-(5-(1,1,1-trifluoro-2-methylpropan-2-yl)isoxazol-3-yl)urea]	C (0.20 < C ≦ 0.40)
COc1cc2ncnc(Oc3cccc(NC(=O)Nc4cc(C(C)(C)C(F)(F)F)on4)c3F)c2cc1OC [Ex 265, 1-(3-(6,7-dimethoxyquinazolin-4-yloxy)-2-fluorophenyl)-3-(5-(1,1,1-trifluoro-2-methylpropan-2-yl)isoxazol-3-yl)urea]	C (0.20 < C ≦ 0.40)
COc1cc2ncnc(Oc3cc(NC(=O)Nc4cc(C(C)(C)C(F)(F)F)on4)ccc3F)c2cc1OC [Ex 266, 1-(3-(6,7-dimethoxyquinazolin-4-yloxy)-4-fluorophenyl)-3-(5-(1,1,1-trifluoro-2-methylpropan-2-yl)isoxazol-3-yl)urea]	C (0.20 < C ≦ 0.40)
COc1cc2ncnc(Oc3cccc(NC(=O)Nc4cc(C(C)(C)C(F)(F)F)no4)c3)c2cc1OC [Ex 267, 1-(3-(6,7-dimethoxyquinazolin-4-yloxy)phenyl)-3-(3-(1,1,1-trifluoro-2-methylpropan-2-yl)isoxazol-5-yl)urea]	C (0.20 < C ≦ 0.40)
COc1cc2ncnc(Sc3cccc(NC(=O)Nc4cc(C(C)(C)C(F)(F)F)no4)c3)c2cc1OC [Ex 268, 1-(3-(6,7-dimethoxyquinazolin-4-ylthio)phenyl)-3-(3-(1,1,1-trifluoro-2-methylpropan-2-yl)isoxazol-5-yl)urea]	C (0.20 < C ≦ 0.40)
COc1cc2ncnc(Oc3cc(NC(=O)Nc4cc(C(C)(C)F)no4)c(F)cc3F)c2cc1OC [Ex 269, 1-(5-(6,7-dimethoxyquinazolin-4-yloxy)-2,4-difluorophenyl)-3-(3-(2-fluoropropan-2-yl)isoxazol-5-yl)urea]	D (D > 0.40)
COc1cc2ncnc(Oc3cc(NC(=O)Nc4cc(C(C)(C)C)on4)c(F)cc3F)c2cc1OC [Ex 270, 1-(5-tert-butylisoxazol-3-yl)-3-(5-(6,7-dimethoxyquinazolin-4-yloxy)-2,4-difluorophenyl)urea]	D (D > 0.40)
COc1cc2ncnc(Oc3cc(NC(=O)Nc4cc(C(F)(F)F)nn4-c4ccccc4)c(F)cc3F)c2cc1OC [Ex 271, 1-(5-(6,7-dimethoxyquinazolin-4-yloxy)-2,4-difluorophenyl)-3-(1-phenyl-3-(trifluoromethyl)-1H-pyrazol-5-yl)urea]	D (D > 0.40)
COc1cc2ncnc(Oc3cc(NC(=O)Nc4cc(C(C)(C)C)nn4-c4ccc(C)cc4)c(F)cc3F)c2cc1OC [Ex 272, 1-(3-tert-butyl-1-p-tolyl-1H-pyrazol-5-yl)-3-(5-(6,7-dimethoxyquinazolin-4-yloxy)-2,4-difluorophenyl)urea]	D (D > 0.40)
COc1cc2ncnc(Oc3cc(NC(=O)Nc4cc(C(C)(C)C)nn4-c4ccccc4)c(F)cc3F)c2cc1OC [Ex 273, 1-(3-tert-butyl-1-phenyl-1H-pyrazol-5-yl)-3-(5-(6,7-dimethoxyquinazolin-4-yloxy)-2,4-difluorophenyl)urea]	D (D > 0.40)
COc1cc2ncnc(Oc3cccc(NC(=O)Nc4cc(C(C)(C)C)nn4-c4ccc(C)cc4)c3)c2cc1OC [Ex 274, 1-(3-tert-butyl-1-p-tolyl-1H-pyrazol-5-yl)-3-(3-(6,7-dimethoxyquinazolin-4-yloxy)phenyl)urea]	D (D > 0.40)
COc1cc2ncnc(Sc3cccc(NC(=O)Nc4cc(C(C)(C)C)nn4-c4ccc(C)cc4)c3)c2cc1OC [Ex 275, 1-(3-tert-butyl-1-p-tolyl-1H-pyrazol-5-yl)-3-(3-(6,7-dimethoxyquinazolin-4-ylthio)phenyl)urea]	D (D > 0.40)
COCCOc1cc2ncnc(Oc3cccc(NC(=O)Nc4cc(C(C)(C)C)nn4-c4ccc(C)cc4)c3)c2cc1OC [Ex 276, 1-(3-tert-butyl-1-p-tolyl-1H-pyrazol-5-yl)-3-(3-(6-methoxy-7-(2-methoxyethoxy)quinazolin-4-yloxy)phenyl)urea]	D (D > 0.40)
COCCOc1cc2ncnc(Sc3cccc(NC(=O)Nc4cc(C(C)(C)C)nn4-c4ccc(C)cc4)c3)c2cc1OC [Ex 277, 1-(3-tert-butyl-1-p-tolyl-1H-pyrazol-5-yl)-3-(3-(6-methoxy-7-(2-methoxyethoxy)quinazolin-4-ylthio)phenyl)urea]	D (D > 0.40)
COc1cc2ncnc(Oc3cccc(NC(=O)Nc4cccc(C(C)(C)C#N)c4)c3)c2cc1OC [Ex 278, 1-(3-(2-cyanopropan-2-yl)phenyl)-3-(3-(6,7-dimethoxyquinazolin-4-yloxy)phenyl)urea]	C (0.20 < C ≦ 0.40)
COc1cc2ncnc(Sc3cccc(NC(=O)Nc4cccc(C(C)(C)C#N)c4)c3)c2cc1OC [Ex 279, 1-(3-(2-cyanopropan-2-yl)phenyl)-3-(3-(6,7-dimethoxyquinazolin-4-ylthio)phenyl)urea]	C (0.20 < C ≦ 0.40)
COc1cc2ncnc(Oc3cccc(NC(=O)Nc4cc(C(C)(C)C)nn4-c4ccc(C)cc4C)c3)c2cc1OC [Ex 282, 1-(3-tert-butyl-1-(2,4-dimethylphenyl)-1H-pyrazol-5-yl)-3-(3-(6,7-dimethoxyquinazolin-4-yloxy)phenyl)urea]	C (0.20 < C ≦ 0.40)
